Measurements as given in ChEMBL document CHEMBL3885861, “Open TG-GATES”.

Species on record: Rattus norvegicus
Assay: Open TG-GATES - Regimen: Single
Assay type: toxicity, organism-based, Sprague-Dawley
Parameters: regimen Single, gender Male, age 6 weeks
Settings: in vivo, po, 100 mg/kg, route gavage, dose level Low; for APTT / Bas / Eos / Fbg / Hb / Ht / Lym / MCH / MCHC / MCV / Mono / Neu / PT / Plat / RBC / Ret / WBC: tissue Blood; for KIDNEY_L / KIDNEY_R / KIDNEY_TOTAL: tissue Kidney; for LIVER: tissue Liver; for A/G / ALP / ALT / AST / BUN / CRE / Ca / Cl / DBIL / GLC / IP / K / LDH / Na / PL / RALB / TBIL / TC / TG / TP / gamma-GTP: tissue Plasma

COc1ccc(Cl)cc1C(=O)NCCc1ccc(S(=O)(=O)NC(=O)NC2CCCCC2)cc1 [GLYBURIDE]
TERMINAL_BW (3 h): 218.6 g | APTT (3 h): 19.3 s | Bas (3 h): 0% | Eos (3 h): 1% | Fbg (3 h): 215.8 mg/dL | Hb (3 h): 13.2 g/dL | Ht (3 h): 41% | Lym (3 h): 69.8% | MCH (3 h): 20.2 pg | MCHC (3 h): 32.3% | MCV (3 h): 62.6 fL | Mono (3 h): 2.8% | Neu (3 h): 25.4% | PT (3 h): 12.3 s | Plat (3 h): 125.3 x10_4/uL | RBC (3 h): 654.4 x10_4/ul | Ret (3 h): 8.1% | WBC (3 h): 93.1 x10_2/uL | KIDNEY_L (3 h): 0.9 g | KIDNEY_R (3 h): 1 g | KIDNEY_TOTAL (3 h): 1.9 g | LIVER (3 h): 9.7 g | A/G (3 h): 1.6 | ALP (3 h): 990.2 IU/L | ALT (3 h): 44.4 IU/L | AST (3 h): 69.4 IU/L | BUN (3 h): 12.8 mg/dL | CRE (3 h): 0.4 mg/dL | Ca (3 h): 10.7 mg/dL | Cl (3 h): 103 meq/L | DBIL (3 h): 0.1 mg/dL | GLC (3 h): 141 mg/dL | IP (3 h): 8.2 mg/dL | K (3 h): 3.7 meq/L | LDH (3 h): 145.6 IU/L | Na (3 h): 140.8 meq/L | PL (3 h): 174.8 mg/dL | RALB (3 h): 3.5 g/dL | TBIL (3 h): 0.2 mg/dL | TC (3 h): 89.8 mg/dL | TG (3 h): 87 mg/dL | TP (3 h): 5.7 g/dL | gamma-GTP (3 h): 1.4 IU/L | TERMINAL_BW (6 h): 214.4 g | APTT (6 h): 19.6 s | Bas (6 h): 0% | Eos (6 h): 0.8% | Fbg (6 h): 222.6 mg/dL | Hb (6 h): 13.9 g/dL | Ht (6 h): 42.5% | Lym (6 h): 76.2% | MCH (6 h): 20.6 pg | MCHC (6 h): 32.6% | MCV (6 h): 63.3 fL | Mono (6 h): 2.8% | Neu (6 h): 18.8% | PT (6 h): 12.7 s | Plat (6 h): 118.8 x10_4/uL | RBC (6 h): 671.8 x10_4/ul | Ret (6 h): 7.8% | WBC (6 h): 101.9 x10_2/uL | KIDNEY_L (6 h): 0.9 g | KIDNEY_R (6 h): 0.9 g | KIDNEY_TOTAL (6 h): 1.8 g | LIVER (6 h): 9.3 g | A/G (6 h): 1.7 | ALP (6 h): 837 IU/L | ALT (6 h): 40.2 IU/L | AST (6 h): 67.4 IU/L | BUN (6 h): 13 mg/dL | CRE (6 h): 0.4 mg/dL | Ca (6 h): 10.7 mg/dL | Cl (6 h): 104.4 meq/L | DBIL (6 h): 0.098 mg/dL | GLC (6 h): 168.6 mg/dL | IP (6 h): 8.6 mg/dL | K (6 h): 3.8 meq/L | LDH (6 h): 136 IU/L | Na (6 h): 141.8 meq/L | PL (6 h): 145.2 mg/dL | RALB (6 h): 3.5 g/dL | TBIL (6 h): 0.2 mg/dL | TC (6 h): 72.2 mg/dL | TG (6 h): 64.8 mg/dL | TP (6 h): 5.6 g/dL | gamma-GTP (6 h): 1.2 IU/L | TERMINAL_BW (9 h): 211.4 g | APTT (9 h): 19.7 s | Bas (9 h): 0% | Eos (9 h): 1% | Fbg (9 h): 223.4 mg/dL | Hb (9 h): 13.4 g/dL | Ht (9 h): 41.4% | Lym (9 h): 79.8% | MCH (9 h): 20.5 pg | MCHC (9 h): 32.5% | MCV (9 h): 63.2 fL | Mono (9 h): 3% | Neu (9 h): 15.6% | PT (9 h): 12.9 s | Plat (9 h): 122.6 x10_4/uL | RBC (9 h): 654.8 x10_4/ul | Ret (9 h): 8.2% | WBC (9 h): 77.5 x10_2/uL | KIDNEY_L (9 h): 0.9 g | KIDNEY_R (9 h): 0.9 g | KIDNEY_TOTAL (9 h): 1.9 g | LIVER (9 h): 8.7 g | A/G (9 h): 1.6 | ALP (9 h): 982.4 IU/L | ALT (9 h): 30.2 IU/L | AST (9 h): 69.2 IU/L | BUN (9 h): 12.4 mg/dL | CRE (9 h): 0.4 mg/dL | Ca (9 h): 10.3 mg/dL | Cl (9 h): 104.2 meq/L | DBIL (9 h): 0.084 mg/dL | GLC (9 h): 153.8 mg/dL | IP (9 h): 10.4 mg/dL | K (9 h): 3.4 meq/L | LDH (9 h): 136.6 IU/L | Na (9 h): 142.4 meq/L | PL (9 h): 143 mg/dL | RALB (9 h): 3.4 g/dL | TBIL (9 h): 0.1 mg/dL | TC (9 h): 79.6 mg/dL | TG (9 h): 42 mg/dL | TP (9 h): 5.6 g/dL | gamma-GTP (9 h): 1 IU/L | TERMINAL_BW (24 h): 227.7 g | APTT (24 h): 18.4 s | Bas (24 h): 0.4% | Eos (24 h): 1% | Fbg (24 h): 211.8 mg/dL | Hb (24 h): 13 g/dL | Ht (24 h): 37.6% | Lym (24 h): 76.8% | MCH (24 h): 21.7 pg | MCHC (24 h): 34.5% | MCV (24 h): 62.9 fL | Mono (24 h): 3.2% | Neu (24 h): 18.8% | PT (24 h): 13.1 s | Plat (24 h): 119.3 x10_4/uL | RBC (24 h): 599 x10_4/ul | Ret (24 h): 7.1% | WBC (24 h): 83.2 x10_2/uL | KIDNEY_L (24 h): 1 g | KIDNEY_R (24 h): 0.9 g | KIDNEY_TOTAL (24 h): 1.9 g | LIVER (24 h): 9.5 g | A/G (24 h): 1.7 | ALP (24 h): 950.8 IU/L | ALT (24 h): 35.4 IU/L | AST (24 h): 68.4 IU/L | BUN (24 h): 14.6 mg/dL | CRE (24 h): 0.4 mg/dL | Ca (24 h): 10.7 mg/dL | Cl (24 h): 103.4 meq/L | DBIL (24 h): 0.09 mg/dL | GLC (24 h): 212.4 mg/dL | IP (24 h): 7.9 mg/dL | K (24 h): 3.5 meq/L | LDH (24 h): 174.2 IU/L | Na (24 h): 142.2 meq/L | PL (24 h): 136 mg/dL | RALB (24 h): 3.4 g/dL | TBIL (24 h): 0.1 mg/dL | TC (24 h): 72.2 mg/dL | TG (24 h): 67.4 mg/dL | TP (24 h): 5.4 g/dL | gamma-GTP (24 h): 1.4 IU/L
